Each structure is given as a SMILES string. ≈ marks a conversion by molar mass, not a printed value. Where a SMILES comes first, the peptide text is derived from it. [ ]: non-standard residue; d: D form. The star is where a group is joined. OBn = c1ccc(CO*)cc1

The first series has as its system Escherichia coli. Nature of the series: Antimicrobial activity against Escherichia coli. The format is functional.
Settings: not given
A word on the MIC: it is the lowest concentration found to suppress growth. Read a high MIC as a less susceptible organism. Regarding `CC[C@H](C)[C@H](NC(=O)[C@H](C)NC(=O)[C@H](CCCCN)NC(=O)[C@H](CC(C)C)NC(=O)[C@H](C)NC(=O)[C@H](CCCCN)NC(=O)[C@H](Cc1cnc[nH]1)NC(=O)[C@H](CC(C)C)NC(=O)[C@@H](NC(=O)[C@H](CCCCN)NC(=O)[C@H](CCCCN)NC(=O)[C@H](CCCCN)NC(=O)[C@H](C)NC(=O)[C@H](CO)NC(=O)[C@H](CCCCN)NC(=O)[C@H](Cc1ccccc1)NC(=O)[C@@H](NC(=O)[C@H](CCCCN)NC(=O)[C@H](CC(C)C)NC(=O)[C@H](Cc1ccccc1)NC(=O)[C@H](CO)NC(=O)[C@H](CCCCN)NC(=O)[C@H](Cc1c[nH]c2ccccc12)NC(=O)[C@H](CCCCN)NC(C)=O)[C@@H](C)O)C(C)C)C(=O)N[C@@H](CO)C(=O)N[C@@H](CO)C(N)=O` (Ac-KWKSFLKTFKSAKKKVLHKALKAISS-NH2), the MIC is 2.8 µM (≈ 8.53 µg/mL).

In turn, `CC[C@H](C)[C@H](NC(=O)[C@H](C)NC(=O)[C@H](CCCCN)NC(=O)[C@H](CC(C)C)NC(=O)[C@H](C)NC(=O)[C@@H](NC(=O)[C@H](Cc1cnc[nH]1)NC(=O)[C@H](CC(C)C)NC(=O)[C@@H](NC(=O)[C@@H](NC(=O)[C@H](CCCCN)NC(=O)[C@H](NC(=O)[C@H](C)NC(=O)[C@H](CO)NC(=O)[C@H](CCCCN)NC(=O)[C@H](Cc1ccccc1)NC(=O)[C@@H](NC(=O)[C@H](CCCCN)NC(=O)[C@H](CC(C)C)NC(=O)[C@H](Cc1ccccc1)NC(=O)[C@H](CO)NC(=O)[C@H](CCCCN)NC(=O)[C@H](Cc1c[nH]c2ccccc12)NC(=O)[C@H](CCCCN)NC(C)=O)[C@@H](C)O)C(C)C)[C@@H](C)O)C(C)C)[C@@H](C)O)C(=O)N[C@@H](CO)C(=O)N[C@@H](CO)C(N)=O` (Ac-KWKSFLKTFKSA[dV]KTVLHTALKAISS-NH2) had an MIC of 1.1 µM (≈ 3.26 µg/mL).

For `CC[C@H](C)[C@H](NC(=O)[C@H](C)NC(=O)[C@H](CCCCN)NC(=O)[C@H](CC(C)C)NC(=O)[C@H](C)NC(=O)[C@@H](NC(=O)[C@H](Cc1cnc[nH]1)NC(=O)[C@H](CC(C)C)NC(=O)[C@@H](NC(=O)[C@@H](NC(=O)[C@H](CCCCN)NC(=O)[C@@H](NC(=O)[C@H](C)NC(=O)[C@H](CO)NC(=O)[C@H](CCCCN)NC(=O)[C@H](Cc1ccccc1)NC(=O)[C@@H](NC(=O)[C@H](CCCCN)NC(=O)[C@H](CC(C)C)NC(=O)[C@H](Cc1ccccc1)NC(=O)[C@H](CO)NC(=O)[C@H](CCCCN)NC(=O)[C@H](Cc1c[nH]c2ccccc12)NC(=O)[C@H](CCCCN)NC(C)=O)[C@@H](C)O)C(C)C)[C@@H](C)O)C(C)C)[C@@H](C)O)C(=O)N[C@@H](CO)C(=O)N[C@@H](CO)C(N)=O` (Ac-KWKSFLKTFKSAVKTVLHTALKAISS-NH2), 2.1 µM (≈ 6.22 µg/mL) was the least that counted as inhibitory (MIC).

`CC[C@H](C)[C@H](NC(=O)[C@H](CCCCN)NC(=O)[C@H](CC(C)C)NC(=O)[C@H](C)NC(=O)[C@@H](NC(=O)[C@H](Cc1cnc[nH]1)NC(=O)[C@H](CC(C)C)NC(=O)[C@@H](NC(=O)[C@@H](NC(=O)[C@H](CCCCN)NC(=O)[C@@H](NC(=O)[C@H](C)NC(=O)[C@H](CO)NC(=O)[C@H](CCCCN)NC(=O)[C@H](Cc1ccccc1)NC(=O)[C@@H](NC(=O)[C@H](CCCCN)NC(=O)[C@H](CC(C)C)NC(=O)[C@H](Cc1ccccc1)NC(=O)[C@H](CO)NC(=O)[C@H](CCCCN)NC(=O)[C@H](Cc1c[nH]c2ccccc12)NC(=O)[C@H](CCCCN)NC(C)=O)[C@@H](C)O)C(C)C)[C@@H](C)O)C(C)C)[C@@H](C)O)C(=O)N[C@@H](CO)C(=O)N[C@@H](CO)C(N)=O` (Ac-KWKSFLKTFKSAVKTVLHTALKISS-NH2) returned an MIC of 0.89 µM (≈ 2.57 µg/mL).

System in a further series: not given
To be noted: erythrocyte.
Take `CC[C@@H](C)[C@@H](NC(=O)[C@@H](C)NC(=O)[C@@H](CCCCN)NC(=O)[C@@H](CC(C)C)NC(=O)[C@@H](C)NC(=O)[C@H](NC(=O)[C@@H](Cc1c[nH]cn1)NC(=O)[C@@H](CC(C)C)NC(=O)[C@H](NC(=O)[C@H](NC(=O)[C@@H](CCCCN)NC(=O)[C@@H](CCCCN)NC(=O)[C@@H](C)NC(=O)[C@@H](CO)NC(=O)[C@@H](CCCCN)NC(=O)[C@@H](Cc1ccccc1)NC(=O)[C@H](NC(=O)[C@@H](CCCCN)NC(=O)[C@@H](CC(C)C)NC(=O)[C@@H](Cc1ccccc1)NC(=O)[C@@H](CO)NC(=O)[C@@H](CCCCN)NC(=O)[C@@H](Cc1c[nH]c2ccccc12)NC(=O)[C@@H](CCCCN)NC(C)=O)[C@H](C)O)[C@H](C)O)C(C)C)[C@H](C)O)C(=O)N[C@H](CO)C(=O)N[C@H](CO)C(N)=O`: the MHC was more than 88.6 µM.

In turn, `CC[C@H](C)[C@H](NC(=O)[C@H](C)NC(=O)[C@H](CCCCN)NC(=O)[C@H](CC(C)C)NC(=O)[C@H](C)NC(=O)[C@H](CCCCN)NC(=O)[C@H](Cc1cnc[nH]1)NC(=O)[C@H](CC(C)C)NC(=O)[C@@H](NC(=O)[C@H](CCCCN)NC(=O)[C@H](CCCCN)NC(=O)[C@H](CCCCN)NC(=O)[C@H](C)NC(=O)[C@H](CO)NC(=O)[C@H](CCCCN)NC(=O)[C@H](Cc1ccccc1)NC(=O)[C@@H](NC(=O)[C@H](CCCCN)NC(=O)[C@H](CC(C)C)NC(=O)[C@H](Cc1ccccc1)NC(=O)[C@H](CO)NC(=O)[C@H](CCCCN)NC(=O)[C@H](Cc1c[nH]c2ccccc12)NC(=O)[C@H](CCCCN)NC(C)=O)[C@@H](C)O)C(C)C)C(=O)N[C@@H](CO)C(=O)N[C@@H](CO)C(N)=O` (Ac-KWKSFLKTFKSAKKKVLHKALKAISS-NH2) gave an MHC of less than 2.8 µM.

Turning to `CC[C@H](C)[C@H](NC(=O)[C@H](C)NC(=O)[C@H](CCCCN)NC(=O)[C@H](CC(C)C)NC(=O)[C@H](C)NC(=O)[C@@H](NC(=O)[C@H](Cc1c[nH]cn1)NC(=O)[C@H](CC(C)C)NC(=O)[C@@H](NC(=O)[C@@H](NC(=O)[C@H](CCCCN)NC(=O)[C@@H](NC(=O)[C@H](C)NC(=O)[C@H](CO)NC(=O)[C@H](CCCCN)NC(=O)[C@H](Cc1ccccc1)NC(=O)[C@@H](NC(=O)[C@H](CCCCN)NC(=O)[C@H](CC(C)C)NC(=O)[C@H](Cc1ccccc1)NC(=O)[C@H](CO)NC(=O)[C@H](CCCCN)NC(=O)[C@H](Cc1c[nH]c2ccccc12)NC(=O)[C@H](CCCCN)NC(C)=O)[C@@H](C)O)C(C)C)[C@@H](C)O)C(C)C)[C@@H](C)O)C(=O)N[C@@H](CO)C(=O)N[C@@H](CO)C(N)=O` (Ac-KWKSFLKTFKSAVKTVLHTALKAISS-NH2), the MHC came out at 5.2 µM.

The compound `CC[C@H](C)[C@H](NC(=O)[C@H](C)NC(=O)[C@H](CCCCN)NC(=O)[C@H](CC(C)C)NC(=O)[C@H](C)NC(=O)[C@@H](NC(=O)[C@H](Cc1c[nH]cn1)NC(=O)[C@H](CC(C)C)NC(=O)[C@@H](NC(=O)[C@@H](NC(=O)[C@H](CCCCN)NC(=O)[C@H](NC(=O)[C@H](C)NC(=O)[C@H](CO)NC(=O)[C@H](CCCCN)NC(=O)[C@H](Cc1ccccc1)NC(=O)[C@@H](NC(=O)[C@H](CCCCN)NC(=O)[C@H](CC(C)C)NC(=O)[C@H](Cc1ccccc1)NC(=O)[C@H](CO)NC(=O)[C@H](CCCCN)NC(=O)[C@H](Cc1c[nH]c2ccccc12)NC(=O)[C@H](CCCCN)NC(C)=O)[C@@H](C)O)C(C)C)[C@@H](C)O)C(C)C)[C@@H](C)O)C(=O)N[C@@H](CO)C(=O)N[C@@H](CO)C(N)=O` (Ac-KWKSFLKTFKSA[dV]KTVLHTALKAISS-NH2) gave an MHC of 22.2 µM.

The compound `CC[C@H](C)[C@H](NC(=O)CN)C(=O)NCC(=O)N[C@@H](C)C(=O)N[C@H](C(=O)N[C@@H](CC(C)C)C(=O)N[C@@H](CCCCN)C(=O)N[C@H](C(=O)N[C@@H](CC(C)C)C(=O)N[C@H](C(=O)N[C@H](C(=O)NCC(=O)N[C@@H](CC(C)C)C(=O)N1CCC[C@H]1C(=O)N[C@@H](C)C(=O)N[C@@H](CC(C)C)C(=O)N[C@H](C(=O)N[C@@H](CO)C(=O)N[C@@H](Cc1c[nH]c2ccccc12)C(=O)N[C@H](C(=O)N[C@@H](CCCCN)C(=O)N[C@@H](CCCNC(=N)N)C(=O)N[C@@H](CCCCN)C(=O)N[C@@H](CCCNC(=N)N)C(=O)N[C@@H](CCC(N)=O)C(=O)N[C@@H](CCC(N)=O)C(N)=O)[C@@H](C)CC)[C@@H](C)CC)[C@@H](C)O)[C@@H](C)O)C(C)C)C(C)C` [MELITTIN] came in with an MHC of 0.78 µM.

With `CC[C@H](C)[C@H](NC(=O)[C@H](CCCCN)NC(=O)[C@H](CC(C)C)NC(=O)[C@H](C)NC(=O)[C@@H](NC(=O)[C@H](Cc1cnc[nH]1)NC(=O)[C@H](CC(C)C)NC(=O)[C@@H](NC(=O)[C@@H](NC(=O)[C@H](CCCCN)NC(=O)[C@@H](NC(=O)[C@H](C)NC(=O)[C@H](CO)NC(=O)[C@H](CCCCN)NC(=O)[C@H](Cc1ccccc1)NC(=O)[C@@H](NC(=O)[C@H](CCCCN)NC(=O)[C@H](CC(C)C)NC(=O)[C@H](Cc1ccccc1)NC(=O)[C@H](CO)NC(=O)[C@H](CCCCN)NC(=O)[C@H](Cc1c[nH]c2ccccc12)NC(=O)[C@H](CCCCN)NC(C)=O)[C@@H](C)O)C(C)C)[C@@H](C)O)C(C)C)[C@@H](C)O)C(=O)N[C@@H](CO)C(=O)N[C@@H](CO)C(N)=O` (Ac-KWKSFLKTFKSAVKTVLHTALKISS-NH2), the MHC is more than 88.6 µM.

For the compound `N=C(N)NCCC[C@H](NC(=O)[C@@H](N)Cc1c[nH]c2ccccc12)C(=O)N[C@@H](Cc1c[nH]c2ccccc12)C(=O)OCc1ccccc1` (H-Trp-Arg-Trp-OBn), the MHC was more than 500 µg/mL.

As to `N=C(N)NCCC[C@H](NC(=O)[C@@H](N)Cc1c[nH]c2ccccc12)C(=O)N[C@@H](Cc1c[nH]c2ccccc12)C(N)=O` (H-Trp-Arg-Trp-NH2), the MHC is more than 500 µg/mL.

The values above are taken from ChEMBL document CHEMBL1671744 (Antimicrob Agents Chemother, 2010).
